The record followed here is patent US4851436A, “HMG-CoA reductase inhibitors” (Merck & Co., Inc., priority 1987, dated 1989).

In one data set the test system is HMG-CoA reductase. The data set is described as follows: In vitro determination of HMG-CoA reductase inhibitory activity. It is filed as biochemical, rat. The note with it: for Relative Potency: Relative to compactin arbitrarily assigned a value of 100; for IC50: purified rat liver microsomal HMG-CoA reductase, 37° C., 40 minutes, pH 7.2. On the procedure: The intrinsic HMG-CoA reductase inhibition activity of the claimed compounds is measured in the in vitro protocol described below:
The In Vitro Determination of HMG-CoA Reductase Activity in Liver and the In Vitro Testing of Inhibitors
The procedure to measure in vitro HMG-CoA reductase activity in rat liver involves two steps and is based upon the procedure of Alberts et al:^1
1. Preparation of liver microsomal pellets.
2. Assay of the pellet for HMG-CoA reductase activity.
Reference: 1. Alberts, et al., Proceedings of the National Academy of Science, Vol. 77, pp. 3957-61 (1980).
Microsomes are prepared from livers of 150-200 g male rats (Charles River) maintained for a week on ground chow containing 2.0% cholestyramine, a bile acid sequestrant. The rats are sacrificed by cervical dislocation, and the livers removed immediately and chilled on ice. All subsequent operation are carried out at 0°-5° C.
Buffer I (for homogenization)
Procedure: all operation at 4° C.
Purification of HMG-CoA Reductase from Microsomal Pellet
Procedure: all operations are carried out at room temperature
The complete assay system is in a total volume of 0.8 ml in phosphate buffer at pH 7.2 (100 mM) with the cofactors at the following concentrations: MgCl2 3 mM; NADP, 3 mM; glucose-6-phosphate, 10 mM; glucose-6-phosphate dehydrogenase (ED 1.1.1.49) 3.0 enzyme units; reduced glutathione, 50 mM; HMG-CoA (Glutaryl-3-^14 C) 0.2 mM (0.1 μCi) and enzyme suspension, 0.1 ml.
The frozen pellet (enzyme) is allowed to thaw at room temperature for 5 minutes and carefully mixed with a stirring rod to a slurry with 0.1 ml of phosphate buffer (pH 7.2) and then diluted to 2.0 ml with the buffer. A volume (0.1 ml) of enzyme suspension is added to each incubation tube. Compounds to be tested are diluted to an appropriate concentration and added in a volume to 10 μ before adding the enzyme. An "untreated-control" is run along with the compounds.
The complete system is placed in 16×125 mm screw-cap culture tubes and shaken uncapped in a 37° C. water bath for 40 minutes at 160 oscillations per minute. At the end of this period the reaction is stopped by the addition of 0.4 ml of 8N HCl. 3 Mg of unlabeled mevalonolactone in 0.1 ml H2 O is added and the tubes shaken as before for an additional 30 minutes at 37° C. to ensure lactonization of the biosynthetic mevalonate.
200 μl of reaction mixture are applied to Bio-Rex 5 column (5 cm in a Pasteur pipette). Elute three times with one ml each of water into a scintillation vial. Add 10 ml of Aquasol-2, shake and count.
Bio-Rex is an ion-exchange resin, obtained from Bio-Rad. It comes dry in the chloride form and only the 100-200 mesh should be used. It is swelled in water for several hours; any fine particles should be decanted off as these will impair the flow rate. The hydrated resin should be stored at 4° C.
Each assay includes 2 untreated controls plus a "killed control" (reaction is stopped immediately before incubation by addition of 0.4 ml of 8N HCl).
After subtracting killed control CPM from all samples, percent inhibition by the test compounds is calculated as follows: [formula]
On the technique in general: Liver microsomes are vesicles of endoplasmic reticulum, rich in cytochrome P450 enzymes.

The nature of data set [1]: Stability of the free hydroxy acid on standing. It counts as physicochemical. On the procedure: The sodium salt of the compound II from Example 17 is redissolved in 2 ml of ethanol-water (1:1) and added to 10 ml of 1N hydrochloric acid from which the hydroxy acid is extracted with ethyl acetate. The latter solvent is washed once with water, dried, and removed in vacuo with a bath temperature not exceeding 30° C.

What is called IC50 is the concentration that inhibits the measured activity by half. A lower IC50 goes with greater potency in that assay. Turning to `C[C@H]1C=C2C=C[C@H](C)[C@H](CC[C@@H](O)C[C@@H](O)CC(=O)O)[C@H]2[C@@H](OC(=O)C(C)(C)CO)C1` [n=1, R=H, R1=CH3, R2=CH3, R3=H], in the data set on HMG-CoA reductase, the “Relative Potency” value is listed as 80 and half-maximal inhibition (IC50) was put at 0.02 µM.

On to `CC1C=C2C=CC(C)C(CCC(O)CC(O)CC(=O)O)C2C(OC(=O)C(C)(C)CCO)C1` [n=2, R=H, R1=CH3, R2=CH3, R3=H, 7-[1,2,6,7,8,8a(R)-Hexahydro-2(S),6(R)-dimethyl-8(S)-(2,2-dimethyl-4-hydroxybutyryloxy)naphthalenyl-1(S)]-3(R),5(R)-dihydroxyheptanoic acid], for which the “reversion of hydroxy acid to lactone” value in data set [1] is listed as “slowly reverts to the lactone on standing”. Further, in the data set with HMG-CoA reductase, the “Relative Potency” value is on record as 64 and the IC50 amounted to 0.0156 µM.

For the compound `CC(CCO)C(=O)O[C@H]1C[C@@H](C)C=C2C=C[C@H](C)[C@H](CC[C@@H](O)C[C@@H](O)CC(=O)O)[C@H]21` (stereo partly drawn) [n=2, R=H, R1=H, R2=CH3, R3=H], in the data set with HMG-CoA reductase, the “Relative Potency” value was found to be 30 and the IC50 was 0.04 µM.

On to `C[C@H]1C=C2C=C[C@H](C)[C@H](CC[C@@H](O)C[C@@H](O)CC(=O)O)[C@H]2[C@@H](OC(=O)C(C)(C)CCCO)C1` [n=3, R=H, R1=CH3, R2=CH3, R3=H], for which, in the data set with HMG-CoA reductase, the “Relative Potency” value is recorded as 63 and the IC50 amounted to 0.03 µM.
